Data published in patent publication US12440471B2, “Compositions and methods for the treatment of bronchopulmonary dysplasia (BPD) and BPD-associated pulmonary hypertension” (AyuVis Research, Inc., priority 2021, dated 2025).

Experiments:
[1] = tested on: hyperoxia-exposed BPD mouse model; test: BPD mouse model: bronchoalveolar lavage fluid (BALF) analysis; assay type: in vivo; conditions: vs BPD group
Description: For the hyperoxia experiment, newborn pups were exposed to 100% hyperoxia (P0), along with their mothers, in cages in an airtight Plexiglas chamber (OxyCycler; Biospherix, Redfield, NY, USA) as described previously by the present inventors (Syed, Das et al., 2017, Leary, Das et al. 2019, Das, Acharya et al. 2020, relevant portions incorporated herein) for 4 consecutive days (till P4) and removed to RA on P5 to be recovered till P14, so as to emulate the human BPD condition. All pups were sacrificed on P14 for further experimental analyses. The pups without any hyperoxia exposure served as the corresponding RA (normoxia) controls.
Bronchoalveolar lavage fluid (BALF) Analysis. Pups were sacrificed on PN14, and the trachea was cannulated with a small-caliber needle by instilling PBS endotracheally at […] pressure for 15 minutes. Two volumes of 300 μL of cold 1×PBS were instilled, gently aspirated, and pooled. Samples were centrifuged at 1000×g for 10 minutes at 4° C. The supernatant was collected, and total protein was quantified using the Pierce™ BCA Protein Assay Kit (Fisher Scientific Co, Houston, TX). The total cell count was done using the TC20 cell counter (BioRad, Hercules, CA). Similar method was followed for analyzing the protein concentration in BAL fluid collected from preterm lambs.

[2] = tested on: hyperoxia-exposed BPD mouse model; test: BPD mouse model: multiplex ELISA of blood serum cytokines; assay type: in vivo
Experimental: Multiplex ELISA. Lung lysate and blood plasma from control and AVR-48 treated group were used for Multiplex ELISA performed on 4 separate inflammatory panels of Meso Scale Discovery multispot assay system (MSD, Rockville, MD) to detect 2 chemokines (MIP-2, MCP-1) and 8 cytokines: IL-21, IP-10, IFNγ, IL-1(3, TNFα, IL-17, IL-10 and IL-6 following the manufacturer's instructions. Briefly, samples were diluted 1:1 in a total volume of 25 μl with the dilution buffer provided with MSD kit and incubated with the above labelling antibodies for 2 h, RT followed by washing with PB ST. The […] was detected using the MSD-specific luminometer.

[3] = PK in preterm lambs after IV dosing; assay type: in vivo, lamb
Experimental: A total 9 lambs were used for this study. One dose of Curosurf was given intratracheally to the PT lamb just after birth. Randomized doses of compound AVR-48 (8) (0, 0.1, 0.3, 1.0 and 3.0 mg/kg) were administered intravenously every 12 hr after the initial dose that will be given at 6 hr after delivery to n=2-4 lambs via slow intravenous injection. The beginning treatment at 6 hr post-delivery is selected to represent the human case where neonatologists attempt to allow an infant to breath without mechanical ventilation, if possible, and then begin invasive respiratory support as necessary. Whole blood was drawn from PT lambs at the time of delivery (“pre-dose”), immediately after dosing (IAD), at 15, 30, 45, and 60 min, and at 2, 4, 8, 12, 24, 48, 72, and 96 hr after the initial dose. Plasma extractions and bioanalysis of compound AVR-48 (8) were performed using a qualified bioanalysis method already developed by us. The PK parameters were calculated following both non-Compartmental Pharmacokinetic Modeling and population Pharmacokinetic Modeling as described by Roberts et al previously (Roberts, Stockmann et al. 2016). Blood was collected every 15 min for the first 90 min of postnatal life, followed by every 3 hours for 12 hours and then spaced at 1.5 d, 2.5 d, 3.5 d, 6.5 d, and 9.5 d for analysis of cytokines (Visconti, Senthamaraikannan et al. 2018) and VEGF levels (Albertine, Dahl et al. 2010). The blood samples also were analyzed for hematology and liver enzymes. After 6-7 d of mechanical ventilation, the lambs will be weaned from mechanical ventillation and weaned to non-invasive support for 3 d to ascertain longer-term outcome (Dahl, Bowen et al. 2018). Terminally, the PT lambs were euthanized after 10 days and their heart/lungs and brain were removed. Ex vivo BAL of the right cranial lobe (it has its own bronchus, pulmonary artery and vein) was done for similar analyses. Tracheal aspirates were collected according to the protocol for cytokines, BAL protein, ICAM-1 and VEGF. The spleen was collected to analyze immune cell population, using FACS.

[4] = tested on: human cord blood monocytes (CBMC); test: Cytokines in human cord blood monocytes (CBMC); assay type: cell-based
Description: IL-12p40, is a marker for the innate immune response to infection and is down regulated in CBMC.

[5] = tested on: adult respiratory distress syndrome/acute lung injury (ARDS/ALI) mouse model; conditions: cited from earlier work
[6] = sheep, plasma, single IV dose 3.0 mg/kg/dose saline solution, n=3 preterm lambs

CC(=O)N[C@@H]1C(Oc2ccc([N+](=O)[O-])cc2)OC(CO)C(O)C1O (stereo partly shown) [AVR-48]
total protein content in BALF ([1]; 10 mg/kg IP): decreased | total inflammatory cells in BALF ([1]; 10 mg/kg): significantly decreased | IFNγ ([2]; AVR-48 treated group): decreased to normal levels | IL-1β ([2]; AVR-48 treated group): decreased to normal levels | IP-10 ([2]; AVR-48 treated group): decreased to normal levels | MCP-1 ([2]; AVR-48 treated group): decreased to normal levels | TNFα ([2]; AVR-48 treated group): decreased to normal levels | IL-10 ([2]; BPD group): markedly increased | IL-17 ([2]; treated vs untreated BPD): no change | IL-21 ([2]; treated vs untreated BPD): no change | MIP-2 ([2]; treated vs untreated BPD): no change | drug accumulation ([3]; repeat IV dosing for 7 days): no drug accumulation | Cmax [3, 6]: 12.2 ± 5.6 µM | half-life [3, 6]: 33.6 min | plasma concentration profile ([3]; single IV dose 3.0 mg/kg/dose): linear decline in drug concentration | IL-10 increase ([4]; AVR-48 alone, 0.1-10 μM): ~2.5 fold | IL-1β ([4]; LPS+AVR-48, 10 μM): decreased | IL-10 ([4]; LPS+AVR-48, 10 μM): decreased | IL-12p40 response ([4]; compound alone (10 μM) or with LPS, compared with only LPS): higher IL-12p40 response than only LPS | TNF-α levels ([4]; human CBMC, LPS): decreased | efficacy dose ([5]; IV, Shah, Das et al. 2021): 10 mg/kg/dose | severe lung inflammation ([5]; LPS-, hyperoxia- and CLP-induced ARDS in adult mice): decreases severe lung inflammation
